In assay [1] the test system is unprenylated Rap1A. Nature of the assay: Western blot of unprenylated Rap1A in hMSC. In kind it is cell-based, human. The note with it: hMSC exposed to increasing amounts of Zol. How it is done: (§1) Three times 10^6 hMSC were lysed in mammalian cell lysis buffer (Mammalian cell lysis kit, Sigma-Aldrich, Dorset, UK) containing 250 mM Tris-5 mM EDTA, 750 mM sodium chloride, 0.5% sodium dodecyl sulphate, 2.5% deoxycholic acid and 5% Igepal supplemented with 10 μl of Proteinase inhibitors cocktail (Sigma-Aldrich, Dorset, UK) containing 4-(2-aminoethyl) benzenesulfonyl fluoride (AEBSF), pepstatin A, bestatin, leupeptin, aprotinin and trans-epoxysuccinyl-L-leucyl-amido(4-guanidino)-butane (E-64) according to manufacturer instruction. Phosphatase inhibitor cocktail (Sigma) was also added when preparing lysates for the detection of AKT, pAKT, P70S6K, and p-P70S6K.
Protein lysates (50 μg) were diluted in equal volume of 2× Laemmli buffer (Gibco) containing Dithiothreitol (DTT, Sigma,UK). The samples were heated at 95° C. for 5 minutes and loaded on a 12% Tris-glycine gel. […] Detection was carried out using enhanced chemi-luminescence plus ECL reaction kit (GE Healthcare, Buckinghamshire, UK) and quantification of protein expression was carried out using image J software.
(FPPS) enzyme in the mevalonate pathway and thereby reducing prenylation of small GTPases, such as Rap, Rac, Rho, Rheb (FIG. 3A). […] To this end, levels of unprenylated Rap1A were measured in hMSC exposed to increasing amounts of Zol.

The subject of assay [2] is zebrafish embryo caudal fin. Nature of the assay: Zebrafish tail amputation and regeneration following irradiation. In kind it is in vivo, Zebrafish (Danio Rerio H). How it is done: Embryos from wild-type Zebrafish (Danio Rerio H) AB strain were collected at 16 cell stage (˜1.5 hours post fertilisation (hpf)) and grown in E3 Medium at 28° C. Embryos were treated with Zoledronate (1 μM) and/or FOH, GGOH at 24 hpf. DNA damage was induced by exposure to ^137Cs Gamma source at 48 hpf and after irradiation the embryo tails were amputated and the embryos were then incubated at 28° C. for a further 12 hrs in the presence of the chemicals. At the end of this period the chemicals were washed off and the embryos were incubated in fresh medium with no chemicals. The embryos were grown up to 120 hpf, following which they were fixed in 4% PFA overnight and then mounted in 100% glycerol. The tail lengths of embryos were measured taking the anal region as starting reference point and the end of the fin fold as the ending point of measurement.

Assay [3] deals with mTOR pathway. As to the kind of experiment: Western blot of mTOR pathway effectors in hMSC. In kind it is cell-based, human. How it is done: as §1
Protein lysates (50 μg) were diluted in equal volume of 2× Laemmli buffer (Gibco) containing Dithiothreitol (DTT, Sigma,UK). The samples were heated at 95° C. for 5 minutes and loaded on a 12% Tris-glycine gel. After electro-blotting, membranes were blocked with 5% Bovine serum albumin (BSA) in 0.1% Tween 20 in PBS (PBS-T) for detection of glyceraldehyde-3-phosphate dehydrogenase (GAPDH) and 5% dry milk in PBS-T for detection of unprenylated RAP1A (Santacruz Biotechnology, Santa Cruz, USA). In case of P-AKT, P-70S6K membranes were blocked with 5%BSA in 1× tris buffered saline and 0.1% tween-20 (TBS-T), where for AKT and P70S6K membranes were blocked with 5% dry milk in TBS-T. All membranes were blocked for 2 hours at room temperature. The antibody sc1482 for the detection of RAP1A (Santacruz, USA) was diluted in TBS-T at 1:1000. Antibodies for the detection of AKT, P-AKT, P-70S6K AND PP70S6K, (Cell Signalling Technologies, USA) were diluted at 1:1000. GAPDH antibody (Abcam, Cambridge) was diluted at 1:30000. […] Detection was carried out using enhanced chemi-luminescence plus ECL reaction kit (GE Healthcare, Buckinghamshire, UK) and quantification of protein expression was carried out using image J software.
To test this, the inventors assessed the phosphorylation state of two effectors downstream of TORC1 and TORC2, p-P70S6K and pAKT (Ser473) respectively (FIG. 7A), in hMSC in presence or absence of Zol. […]

The test system of assay [4] is normal human dermal fibroblasts. As to the kind of experiment: Human dermal fibroblast growth, cumulative population doublings. In kind it is cell-based. The text has this:
Cultures (n=3) grown in PBS senesced after 17-21 population doublings (PDs) (square symbols) whereas cultures grown in presence of Zol were still proliferating after 27-34 PDs (triangle symbols).

The test system of assay [5] is unprenylated RAP1A. Nature of the assay: Unprenylation (unprenylated RAP1A) in murine tissues following treatment. In kind it is in vivo, C57BL6/J mice. To be noted: Zol 125 μg/kg, i.p., 3 days, n=6 mice/group. How it is done:
For in vivo murine experiments C57BL6/J mice aged 8-10 weeks were used. All animals were housed in a conventional, non- specific pathogen free (SPF), mouse facility at the Medical School, University of Sheffield. Mice were fed on a commercially prepared pelleted diet and given water ad libitum. A minimum of 6 mice were used in each experimental group. Depending on the experimental groups, mice were injected either with Zoledronate(single dose, 125 μg/kg) or PBS ip, and sacrificed for tissue collection 3 days after the injection. Snap-frozen tissues were lysed for protein extraction using a tissue homogenizer and mammalian cell lysis buffer containing phosphatase and protease inhibitors. Protein lysates were run on 12% Tris-glycine gels and assessed for unprenylated RAP1A detected by sc1482 antibody RAP1A (Santacruz, USA) at 1:1000 dilution and GAPDH at 1:10000 dilution as described earlier.

The subject of assay [6] is murine tissues. Nature of the assay: Immuno-staining of γH2AX in murine tissue following irradiation. In kind it is in vivo, C57BL6/J mice. To be noted: 3Gy irradiation, Zol 125 μg/kg i.p. for 3 days, 12 h post irradiation. The text has this: Cells were viewed using in an Inverted Zeiss LSM 510 NLO microscope equipped with Argon (Ar) laser (488 nm) 30 mW to image the fluorescent marker FITC and UV lamp to image DAPI stained nuclei.

Where [7] appears, read: hMSC exposed to Zol (1 μM) for 72 h, n=3.

For the compound `O=P(O)(O)C(O)(Cn1ccnc1)P(=O)(O)O` [Zoledronate], in assay [1], the “expression of unprenylated Rap1A” value is “increased expression”. For the same compound, the “regeneration of the caudal fin at 120 hpf” value in assay [2] (1Gy irradiation, Zol 1 μM, FIG. 6) is reported as “enhances tail regeneration”; in assay [2] (1 and 3 Gy irradiation (data not shown)) it was “same outcome”; in assay [2] (5 Gy irradiation, Zol 1 μM, n=15/group), “enhances tail regeneration”; in assay [2] (5 Gy irradiation, Zol 1 μM, n=15/group, listed as Zol), “rescued”. For the same compound, the “mTOR signaling (p-mTOR, p-P70S6K, p-AKT, p-FOXO3A), FIG. 12” value in assay [3] (hMSC exposed to Zol) was “inhibition of mTOR signaling”. The p-P70S6K result in assay [3] (setting [7]) is reported as “significant decrease”. The “pAKT (Ser473)” value in assay [3] (setting [7]) was “significant decrease”. Further, the “lifespan of normal human dermal fibroblasts” value in assay [4] is given as “extends lifespan”. Also, the “population doublings after which cultures were still proliferating” value in assay [4] (human dermal fibroblasts in presence of Zol, PBS cultures senesced after 17-21 PDs, n=3) was 27-34 PDs. In assay [5], the “levels of Rap1A unprenylation in murine tissues” value was “increased levels of Rap1A unprenylation”. Further, the “levels of DNA damage (γH2AX foci) in murine tissues” value in assay [6] is given as “decreased levels of DNA damage”.

These data come from patent US20160039852A1, “THERAPEUTIC USES OF BISPHOSPHONATES” (THE UNIVERSITY OF SHEFFIELD, priority 2013, published 2016).
